Test results published in PubChem BioAssay (NCI).
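All cell lines were grown in 96-well plates and treated with compound for 48 hours. TGI is the concentration that stops growth completely.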

How the values were obtained:
Test in all cases: NCI-60 cell line screen, 48 h
HOP-62 NSCLC = tested on: HOP-62 NSCLC
IGROV1 ovarian = tested on: IGROV1 ovarian
OVCAR-8 ovarian = tested on: OVCAR-8 ovarian
NCI-H522 lung = tested on: NCI-H522 lung
U251 CNS = tested on: U251 CNS
CAKI-1 renal = tested on: CAKI-1 renal
SF-539 CNS = tested on: SF-539 CNS
KM12 colon = tested on: KM12 colon
HCC-2998 colon = tested on: HCC-2998 colon
NCI-H460 lung = tested on: NCI-H460 lung
SF-295 CNS = tested on: SF-295 CNS
OVCAR-3 ovarian = tested on: OVCAR-3 ovarian
HS 578T breast = tested on: HS 578T breast
MDA-MB-435 = tested on: MDA-MB-435
HCT-116 colon = tested on: HCT-116 colon
M14 melanoma = tested on: M14 melanoma
786-0 renal = tested on: 786-0 renal
HL-60(TB) leukemia = tested on: HL-60(TB) leukemia
SF-268 CNS = tested on: SF-268 CNS
OVCAR-5 ovarian = tested on: OVCAR-5 ovarian
BT-549 breast = tested on: BT-549 breast
SNB-75 CNS = tested on: SNB-75 CNS
HT29 colon = tested on: HT29 colon
MALME-3M melanoma = tested on: MALME-3M melanoma
SK-MEL-28 melanoma = tested on: SK-MEL-28 melanoma
SN12C renal = tested on: SN12C renal
NCI/ADR-RES ovarian = tested on: NCI/ADR-RES ovarian
MOLT-4 leukemia = tested on: MOLT-4 leukemia
SK-MEL-5 melanoma = tested on: SK-MEL-5 melanoma
K-562 leukemia = tested on: K-562 leukemia
HOP-92 NSCLC = tested on: HOP-92 NSCLC
EKVX NSCLC = tested on: EKVX NSCLC
LOX IMVI melanoma = tested on: LOX IMVI melanoma
UO-31 renal = tested on: UO-31 renal
NCI-H226 lung = tested on: NCI-H226 lung
RXF 393 renal = tested on: RXF 393 renal
A549 NSCLC = tested on: A549 NSCLC
OVCAR-4 ovarian = tested on: OVCAR-4 ovarian
COLO 205 colon = tested on: COLO 205 colon
ACHN renal = tested on: ACHN renal
A498 renal = tested on: A498 renal
MCF7 breast = tested on: MCF7 breast
TK-10 renal = tested on: TK-10 renal
DU-145 prostate = tested on: DU-145 prostate
CCRF-CEM leukemia = tested on: CCRF-CEM leukemia
PC-3 prostate = tested on: PC-3 prostate
SK-OV-3 ovarian = tested on: SK-OV-3 ovarian
SK-MEL-2 melanoma = tested on: SK-MEL-2 melanoma
SNB-19 CNS = tested on: SNB-19 CNS
MDA-MB-231 breast = tested on: MDA-MB-231 breast
RPMI-8226 leukemia = tested on: RPMI-8226 leukemia
SW-620 colon = tested on: SW-620 colon
NCI-H23 lung = tested on: NCI-H23 lung
UACC-257 melanoma = tested on: UACC-257 melanoma
SR leukemia = tested on: SR leukemia
T-47D breast = tested on: T-47D breast
MDA-N = tested on: MDA-N
UACC-62 melanoma = tested on: UACC-62 melanoma
HCT-15 colon = tested on: HCT-15 colon

## COC(=O)[C@@H]1C[C@H]([Se]c2ccccc2)CN1C(=O)OCc1ccccc1
HOP-62 NSCLC
  TGI: > 100 µM
IGROV1 ovarian
  TGI: > 100 µM
OVCAR-8 ovarian
  TGI: > 100 µM
NCI-H522 lung
  TGI: > 100 µM
U251 CNS
  TGI: > 100 µM
CAKI-1 renal
  TGI: > 100 µM
SF-539 CNS
  TGI: > 100 µM
KM12 colon
  TGI: > 100 µM
HCC-2998 colon
  TGI: > 100 µM
NCI-H460 lung
  TGI: 86.1 µM
SF-295 CNS
  TGI: > 100 µM
OVCAR-3 ovarian
  TGI: 67.1 µM
HS 578T breast
  TGI: > 100 µM
MDA-MB-435
  TGI: 65 µM
HCT-116 colon
  TGI: > 100 µM
M14 melanoma
  TGI: > 100 µM
786-0 renal
  TGI: > 100 µM
HL-60(TB) leukemia
  TGI: 66 µM
SF-268 CNS
  TGI: > 100 µM
OVCAR-5 ovarian
  TGI: > 100 µM
BT-549 breast
  TGI: 60.7 µM
SNB-75 CNS
  TGI: > 100 µM
HT29 colon
  TGI: 70.4 µM
MALME-3M melanoma
  TGI: 77.2 µM
SK-MEL-28 melanoma
  TGI: 69.2 µM
SN12C renal
  TGI: > 100 µM
NCI/ADR-RES ovarian
  TGI: > 100 µM
MOLT-4 leukemia
  TGI: 66.8 µM
SK-MEL-5 melanoma
  TGI: 30.6 µM
K-562 leukemia
  TGI: > 100 µM
HOP-92 NSCLC
  TGI: > 100 µM
EKVX NSCLC
  TGI: > 100 µM
LOX IMVI melanoma
  TGI: 26.5 µM
UO-31 renal
  TGI: 95.3 µM
NCI-H226 lung
  TGI: > 100 µM
RXF 393 renal
  TGI: 84.3 µM
A549 NSCLC
  TGI: > 100 µM
OVCAR-4 ovarian
  TGI: > 100 µM
COLO 205 colon
  TGI: 54.5 µM
ACHN renal
  TGI: > 100 µM
A498 renal
  TGI: > 100 µM
MCF7 breast
  TGI: 41.5 µM
TK-10 renal
  TGI: > 100 µM
DU-145 prostate
  TGI: > 100 µM
CCRF-CEM leukemia
  TGI: > 100 µM
PC-3 prostate
  TGI: > 100 µM
SK-OV-3 ovarian
  TGI: > 100 µM
SK-MEL-2 melanoma
  TGI: 42.2 µM
SNB-19 CNS
  TGI: > 100 µM
MDA-MB-231 breast
  TGI: > 100 µM
RPMI-8226 leukemia
  TGI: 71.8 µM
SW-620 colon
  TGI: > 100 µM
NCI-H23 lung
  TGI: 99.2 µM
UACC-257 melanoma
  TGI: > 100 µM
SR leukemia
  TGI: > 100 µM
T-47D breast
  TGI: > 100 µM
MDA-N
  TGI: 68.2 µM
UACC-62 melanoma
  TGI: 35.8 µM
HCT-15 colon
  TGI: > 100 µM

## COc1cc2cc(C(=O)N3CC(CCl)c4ccccc43)[nH]c2c(OC)c1OC (stereo not given)
HOP-62 NSCLC
  TGI: > 92.1 µM
IGROV1 ovarian
  TGI: > 100 µM
OVCAR-8 ovarian
  TGI: > 100 µM
NCI-H522 lung
  TGI: > 100 µM
U251 CNS
  TGI: > 100 µM
CAKI-1 renal
  TGI: > 100 µM
SF-539 CNS
  TGI: > 100 µM
KM12 colon
  TGI: > 100 µM
HCC-2998 colon
  TGI: > 100 µM
NCI-H460 lung
  TGI: > 57.4 µM
SF-295 CNS
  TGI: > 100 µM
OVCAR-3 ovarian
  TGI: > 100 µM
HS 578T breast
  TGI: > 100 µM
MDA-MB-435
  TGI: > 100 µM
HCT-116 colon
  TGI: > 100 µM
M14 melanoma
  TGI: > 100 µM
786-0 renal
  TGI: > 100 µM
HL-60(TB) leukemia
  TGI: > 100 µM
SF-268 CNS
  TGI: > 100 µM
OVCAR-5 ovarian
  TGI: > 100 µM
BT-549 breast
  TGI: > 100 µM
SNB-75 CNS
  TGI: > 100 µM
HT29 colon
  TGI: > 57.9 µM
MALME-3M melanoma
  TGI: > 100 µM
SK-MEL-28 melanoma
  TGI: > 100 µM
SN12C renal
  TGI: 55.2 µM
NCI/ADR-RES ovarian
  TGI: > 100 µM
MOLT-4 leukemia
  TGI: > 100 µM
SK-MEL-5 melanoma
  TGI: > 100 µM
K-562 leukemia
  TGI: > 41.3 µM
HOP-92 NSCLC
  TGI: > 100 µM
EKVX NSCLC
  TGI: > 100 µM
LOX IMVI melanoma
  TGI: > 100 µM
UO-31 renal
  TGI: > 100 µM
NCI-H226 lung
  TGI: > 100 µM
RXF 393 renal
  TGI: > 100 µM
A549 NSCLC
  TGI: > 100 µM
OVCAR-4 ovarian
  TGI: > 100 µM
COLO 205 colon
  TGI: > 100 µM
ACHN renal
  TGI: > 100 µM
A498 renal
  TGI: > 100 µM
MCF7 breast
  TGI: > 100 µM
TK-10 renal
  TGI: > 100 µM
DU-145 prostate
  TGI: > 100 µM
CCRF-CEM leukemia
  TGI: > 100 µM
PC-3 prostate
  TGI: > 100 µM
SK-OV-3 ovarian
  TGI: > 100 µM
SK-MEL-2 melanoma
  TGI: > 100 µM
SNB-19 CNS
  TGI: > 100 µM
MDA-MB-231 breast
  TGI: > 100 µM
RPMI-8226 leukemia
  TGI: > 100 µM
SW-620 colon
  TGI: > 100 µM
NCI-H23 lung
  TGI: > 100 µM
UACC-257 melanoma
  TGI: > 100 µM
SR leukemia
  TGI: > 100 µM
T-47D breast
  TGI: > 89.4 µM
MDA-N
  TGI: > 100 µM
UACC-62 melanoma
  TGI: > 100 µM
HCT-15 colon
  TGI: > 100 µM

## CCc1nc(Cl)nc(Cl)c1Cl
HOP-62 NSCLC
  TGI: 21.2 µM
IGROV1 ovarian
  TGI: 13.7 µM
OVCAR-8 ovarian
  TGI: 5.34 µM
NCI-H522 lung
  TGI: 0.234 µM
U251 CNS
  TGI: 3.32 µM
CAKI-1 renal
  TGI: 1.15 µM
SF-539 CNS
  TGI: 9.65 µM
KM12 colon
  TGI: 15.5 µM
HCC-2998 colon
  TGI: 2.24 µM
NCI-H460 lung
  TGI: 28.5 µM
SF-295 CNS
  TGI: 23.1 µM
OVCAR-3 ovarian
  TGI: 2.08 µM
HS 578T breast
  TGI: 9.39 µM
MDA-MB-435
  TGI: 6.53 µM
HCT-116 colon
  TGI: 4.62 µM
M14 melanoma
  TGI: 5.29 µM
786-0 renal
  TGI: 6.42 µM
HL-60(TB) leukemia
  TGI: 3.59 µM
SF-268 CNS
  TGI: 3.37 µM
OVCAR-5 ovarian
  TGI: 9.81 µM
BT-549 breast
  TGI: 14.6 µM
SNB-75 CNS
  TGI: 18.3 µM
HT29 colon
  TGI: 5.04 µM
MALME-3M melanoma
  TGI: 1.57 µM
SK-MEL-28 melanoma
  TGI: 17.7 µM
SN12C renal
  TGI: 6.69 µM
NCI/ADR-RES ovarian
  TGI: 9.41 µM
MOLT-4 leukemia
  TGI: 1.68 µM
SK-MEL-5 melanoma
  TGI: 7.71 µM
K-562 leukemia
  TGI: 3.62 µM
HOP-92 NSCLC
  TGI: 5.16 µM
EKVX NSCLC
  TGI: 38.7 µM
LOX IMVI melanoma
  TGI: 0.394 µM
UO-31 renal
  TGI: 0.674 µM
NCI-H226 lung
  TGI: 14.9 µM
RXF 393 renal
  TGI: 4.37 µM
A549 NSCLC
  TGI: 9.56 µM
OVCAR-4 ovarian
  TGI: 2.06 µM
COLO 205 colon
  TGI: 14.6 µM
ACHN renal
  TGI: 1.5 µM
A498 renal
  TGI: 25.6 µM
MCF7 breast
  TGI: 5.56 µM
TK-10 renal
  TGI: 21.2 µM
DU-145 prostate
  TGI: 23.1 µM
CCRF-CEM leukemia
  TGI: 0.771 µM
PC-3 prostate
  TGI: 6.25 µM
SK-OV-3 ovarian
  TGI: 18.4 µM
SNB-19 CNS
  TGI: 11.3 µM
MDA-MB-231 breast
  TGI: 13.1 µM
SW-620 colon
  TGI: 5.17 µM
NCI-H23 lung
  TGI: 5.9 µM
UACC-257 melanoma
  TGI: 1.87 µM
SR leukemia
  TGI: 0.444 µM
T-47D breast
  TGI: 22 µM
MDA-N
  TGI: 15.2 µM
UACC-62 melanoma
  TGI: 19 µM
HCT-15 colon
  TGI: 1.88 µM
